Data: US6737383B1, “Herbicidal oxadiazolidines” (priority 1999, dated 2004)

Experiments:
[1] = tested on: winter barley; assay: Test E winter barley; format: in vivo, Hordeum vulgare; settings: Postemergence
Method: (§1) Compounds evaluated in this test were formulated in a non-phytotoxic solvent mixture which included a surfactant and applied to plants that were in the 1- to 4-leaf stage (postemergence application). A mixture of sandy loam soil and greenhouse potting mix in a 60:40 ratio was used for the postemergence test.
(§2) Plantings of these crops and weed species were adjusted to produce plants of appropriate size for the postemergence test. All plant species were grown using normal greenhouse practices. Crop and weed species include annual bluegrass (Poa annua), blackgrass (Alopecurus myosuroides), black nightshade (Solanum nigra), chickweed (Stellaria media), common poppy (Papaver rhoeas), deadnettle (Lamium amplexicaule), downy brome (Bromus tectorum), field violet (Viola arvensis), galium (Galium aparine), green foxtail (Setaria viridis), Italian ryegrass (Lolium multiflorum), jointed goatgrass (Aegilops cylindrica), kochia (Kochia scoparia), lambsquarters (Chenopodium album), littleseed canarygrass (Phalaris minor), rape (Brassica napus), redroot pigweed (Amaranthus retroflexus), Russian thistle (Salsola kali), scentless chamomile (Matricaria inodora), spring barley (Hordeum vulgare), sugar beet (Beta vulgaris), sunflower (Helianthus annuus), ivyleaf speedwell (Veronica hederaefolia), spring wheat (Triticum aestivum), winter wheat (Triticum aestivum), wild buckwheat (Polygonum convolvulus), wild mustard (Sinapis arvensis), wild oat (Avena fatua), windgrass (Apera spica-venti) and winter barley (Hordeum vulgare).
(§3) Treated plants and untreated controls were maintained in a greenhouse for approximately 21 to 28 days, after which all treated plants were compared to untreated controls and visually evaluated. […] A dash response (-) means no test result.

[2] = tested on: rape; assay: Test E rape; format: in vivo, Brassica napus; settings: Postemergence
Method: […] A mixture of sandy loam soil and greenhouse potting mix in a 60:40 ratio was used for the postemergence test.
as §2, §3

[3] = tested on: green foxtail; assay: Test E green foxtail; format: in vivo, Setaria viridis; settings: Postemergence
Method: as §1, §2, §3

[4] = tested on: jointed goatgrass; assay: Test E jointed goatgrass; format: in vivo, Aegilops cylindrica; settings: Postemergence
Outline: (§4)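 For postemergence, sowings are timed so plants reach the 1- to 4-leaf stage at spraying. Test compound is applied in a surfactant-containing solvent mixture that is non-phytotoxic. Response is judged by eye against untreated controls after approximately 21 to 28 days.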

[5] = tested on: galium; assay: Test E galium; format: in vivo, Galium aparine; settings: Preemergence
[6] = tested on: rape; assay: Test E rape; format: in vivo, Brassica napus; settings: Preemergence
[7] = tested on: black nightshade; assay: Test E black nightshade; format: in vivo, Solanum nigra; settings: Preemergence
[8] = tested on: sugar beet; assay: Test E sugar beet; format: in vivo, Beta vulgaris; settings: Postemergence
Method: as §1, §2, §3

[9] = tested on: windgrass; assay: Test E windgrass; format: in vivo, Apera spica-venti; settings: Postemergence
Outline: as §4

[10] = tested on: maize hybrid P33G26; assay: Test G maize injury with safener-treated seed; settings: 28 days after application
Outline: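 Maize hybrid P33G26 seed, treated with dichlormid, fenchlorazole-ethyl or naphthalic anhydride or left untreated, was sown in soil pots, then sprayed pre-emergence with several compound rates at 310 L/ha. Plants grew in a greenhouse (14 h day, about 27/24 °C day/night), with 4–5 replicates. Injury was scored visually against untreated controls 28 days after application.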

[11] = tested on: sourgrass; assay: Test D sourgrass; format: in vivo, Trichachne insularis; settings: Postemergence, 0 to 100 scale
[12] = tested on: common poppy; assay: Test E common poppy; format: in vivo, Papaver rhoeas; settings: Preemergence
[13] = tested on: common pursiane; assay: Test D common purslane; format: in vivo, Portulaca oleracea; settings: Postemergence, 0 to 100 scale
[14] = tested on: Green foxtail; assay: Test D green foxtail; format: in vivo; settings: Postemergence, 0 to 100 scale
[15] = tested on: Green foxtail; assay: Test D green foxtail; format: in vivo; settings: Postemergence, 0 to 100 scale, 0 no injury, 100 complete control
[16] = tested on: Green foxtail; assay: Test D green foxtail; format: in vivo; settings: Postemergence, 0 to 100 scale; remark: listed apart in the source
[17] = tested on: Green foxtail; assay: Test D green foxtail; format: in vivo; settings: Postemergence, 0 to 100 scale, 0 no injury, 100 complete control; remark: listed apart in the source
[18] = Rate 250 g/ha, 0 to 100 scale (0 no effect, 100 complete control)
[19] = Rate 500 g/ha, 0 to 100 scale, 0 no effect, 100 complete control
[20] = Rate 125 g/ha, 0 to 100 scale (0 no effect, 100 complete control)
[21] = Rate 500 g/ha, 0 to 100 scale where 0 is no effect and 100 is complete control
[22] = Rate 250 g/ha, 0 to 100 scale where 0 is no effect and 100 is complete control
[23] = Rate 64 g/ha, 0 no injury, 100 complete control
[24] = Rate 125 g/ha, 0 no injury, 100 complete control

SMILES: CC(C)N(C(=O)n1oc(=O)n(C(C)C)c1=O)c1ccc(F)cc1F [Compound 109]
- Plant response rating, Barley (winter) ([1]; Rate 125 g/ha, 0 to 100 scale): 40
- Plant response rating, Barley (winter) [1, 18]: 20
- Plant response rating, Barley (winter) [1, 19]: 10
- Plant response rating, Rape ([2]; Rate 125 g/ha, 0 to 100 scale): 50
- Plant response rating, Rape [2, 18]: 50
- Plant response rating, Rape [2, 19]: 60
- Plant response rating, Green foxtail ([3]; Rate 125 g/ha, 0 to 100 scale): 30
- Plant response rating, Green foxtail [3, 18]: 65
- Plant response rating, Green foxtail [3, 19]: 80
- Plant response rating, Jointed goatgra ([4]; Rate 125 g/ha, 0 to 100 scale): 10
- Plant response rating, Jointed goatgra [4, 18]: 5
- Plant response rating, Jointed goatgra [4, 19]: 30
- Plant response rating, Galium [5, 20]: 100
- Plant response rating, Galium ([5]; Rate 250 g/ha, 0 to 100 scale): 100
- Plant response rating, Galium [5, 21]: 100
- Plant response rating, Rape [6, 20]: 10
- Plant response rating, Rape ([6]; Rate 250 g/ha, 0 to 100 scale): 55
- Plant response rating, Rape [6, 21]: 65
- Plant response rating, Blk nightshade [7, 20]: 75
- Plant response rating, Blk nightshade ([7]; Rate 250 g/ha, 0 to 100 scale): 90
- Plant response rating, Blk nightshade [7, 21]: 90
- Plant response rating, Sugar beet ([8]; Rate 125 g/ha, 0 to 100 scale): 30
- Plant response rating, Sugar beet [8, 18]: 35
- Plant response rating, Sugar beet [8, 19]: 30

SMILES: C=CCn1c(=O)on(C(=O)N(c2ccc(F)cc2)C(C)C)c1=O [Compound 146]
- Plant response rating, Windgrass ([9]; Rate 62 g/ha, 0 to 100 scale): 85
- Windgrass plant response rating [9, 22]: 95
- Plant response rating, Barley (winter) ([1]; Rate 62 g/ha, 0 to 100 scale): 5
- Plant response rating, Barley (winter) ([1]; Rate 125 g/ha, 0 to 100 scale): 10
- Plant response rating, Barley (winter) [1, 19]: 20
- Barley (winter) plant response rating [1, 22]: 10
- Mean plant response rating, maize ([10]; Safener Dichlormid (seed treatment), Rate 140 g ai/ha): 1 percent control
- Mean plant response rating, maize ([10]; Safener Dichlormid (seed treatment), Rate 280 g ai/ha): 1 percent control
- Mean plant response rating, maize ([10]; Safener Dichlormid (seed treatment), Rate 560 g ai/ha): 4 percent control
- Mean plant response rating, maize ([10]; Safener Dichlormid (seed treatment), Rate 1120 g ai/ha): 4 percent control
- Mean plant response rating, maize ([10]; Safener Fenchlorazole-ethyl (seed treatment), Rate 140 g ai/ha): 3 percent control
- Mean plant response rating, maize ([10]; Safener Fenchlorazole-ethyl (seed treatment), Rate 280 g ai/ha): 74 percent control
- Mean plant response rating, maize ([10]; Safener Fenchlorazole-ethyl (seed treatment), Rate 560 g ai/ha): 78 percent control
- Mean plant response rating, maize ([10]; Safener Fenchlorazole-ethyl (seed treatment), Rate 1120 g ai/ha): 85 percent control
- Mean plant response rating, maize ([10]; Safener None, Rate 140 g ai/ha): 49 percent control
- Mean plant response rating, maize ([10]; Safener None, Rate 280 g ai/ha): 73 percent control
- Mean plant response rating, maize ([10]; Safener None, Rate 560 g ai/ha): 80 percent control
- Mean plant response rating, maize ([10]; Safener None, Rate 1120 g ai/ha): 85 percent control
- Mean plant response rating, maize ([10]; Safener naphthalic anhydride (seed treatment), Rate 140 g ai/ha): 0 percent control
- Mean plant response rating, maize ([10]; Safener naphthalic anhydride (seed treatment), Rate 1120 g ai/ha): 35 percent control
- Plant response rating, Rape ([2]; Rate 62 g/ha, 0 to 100 scale): 60
- Plant response rating, Rape ([2]; Rate 125 g/ha, 0 to 100 scale): 40
- Plant response rating, Rape [2, 19]: 60
- Rape plant response rating [2, 22]: 50
- Sourgrass plant response rating [11, 23]: 50
- Plant response rating, Sourgrass [11, 24]: 50
- Sourgrass plant response rating [11, 24]: 30
- Plant response rating, Sourgrass ([11]; Rate 250 g/ha): 80
- Plant response rating, Sourgrass ([11]; Rate 500 g/ha): 80
- Plant response rating, Green foxtail ([3]; Rate 62 g/ha, 0 to 100 scale): 70
- Plant response rating, Green foxtail ([3]; Rate 125 g/ha, 0 to 100 scale): 20
- Plant response rating, Green foxtail [3, 19]: 80
- Green foxtail plant response rating [3, 22]: 70
- Plant response rating, Jointed goatgra ([4]; Rate 62 g/ha, 0 to 100 scale): 55
- Plant response rating, Jointed goatgra ([4]; Rate 125 g/ha, 0 to 100 scale): 15
- Plant response rating, Jointed goatgra [4, 19]: 40
- Jointed goatgra plant response rating [4, 22]: 10
- Plant response rating, Galium [5, 20]: 40
- Galium plant response rating (0 to 100 scale) ([5]; Rate 250 g/ha): 50
- Plant response rating, Galium [5, 21]: 95
- Plant response rating, Common poppy [12, 20]: 100
- Common poppy plant response rating (0 to 100 scale) ([12]; Rate 250 g/ha): 100
- Plant response rating, Common poppy [12, 21]: 100
- Plant response rating, Rape [6, 20]: 60
- Rape plant response rating (0 to 100 scale) ([6]; Rate 250 g/ha): 80
- Plant response rating, Rape [6, 21]: 60
- Plant response rating, Blk nightshade [7, 20]: 85
- Blk nightshade plant response rating (0 to 100 scale) ([7]; Rate 250 g/ha): 10
- Plant response rating, Blk nightshade [7, 21]: 100
- Plant response rating, Sugar beet ([8]; Rate 62 g/ha, 0 to 100 scale): 0
- Plant response rating, Sugar beet ([8]; Rate 125 g/ha, 0 to 100 scale): 20
- Plant response rating, Sugar beet [8, 19]: 40
- Sugar beet plant response rating [8, 22]: 30
- Plant response rating, C. purslane [13, 23]: 0
- Plant response rating, C. purslane [13, 24]: 0
- Plant response rating, C. purslane ([13]; Rate 250 g/ha): 20
- Plant response rating, C. purslane ([13]; Rate 500 g/ha): 20

SMILES: CC(C)N(C(=O)n1oc(=O)n(C2CC2)c1=O)c1ccc(F)cc1F [Compound 299]
- Plant response rating, Green foxtail ([14]; Rate 250 g/ha): 100
- Plant response rating, Green foxtail ([14]; Rate 500 g/ha): 100
- Plant response rating, Green foxtail ([15]; Rate 64 g/ha): 100
- Plant response rating, Green foxtail ([15]; Rate 125 g/ha): 100
- Plant response rating, Green foxtail ([16]; Rate 250 g/ha): 100
- Plant response rating, Green foxtail ([16]; Rate 500 g/ha): 100
- Green foxtail plant response rating ([17]; Rate 64 g/ha): 100
- Green foxtail plant response rating ([17]; Rate 125 g/ha): 100
- Plant response rating, C. purslane [13, 23]: 0
- Plant response rating, C. purslane [13, 24]: 0
- Plant response rating, C. purslane ([13]; Rate 250 g/ha): 0
- Plant response rating, C. purslane ([13]; Rate 500 g/ha): 0
